Results as given in patent publication US20220218664A1, “DRUG AND METHOD FOR TREATING OR PREVENTING COMPLICATIONS FROM DIABETES, USING SAID DRUG” (TMS Co., Ltd., priority 2019, published 2022).

How the values were obtained:
Assay type in all cases: in vivo, C57BL/6J male mice
[1] = system: streptozotocin-induced diabetic mice; test: Hot plate test: evaluating thermal stimulus; conditions: 10 mg/kg i.p. once a day
Procedure: (§1) 9-week-old C57BL/6J male mice were purchased and familiarized with an animal facility for 1 week. 200 mg/kg of streptozotocin (streptozotocin; STZ) was administered […] into the peritoneal cavity of 10-week-old mice to prepare streptozotocin-induced diabetic mice (hereinafter also referred to as “STZ administration week 0”). One week after the administration of streptozotocin, blood was collected from the tail vein of the mice, and the blood glucose level (BS) was measured using an automatic blood glucose measuring device (product name: Medisafe (trademark) Mini GR-102, made by Terumo (Co)). Mice having a blood glucose level of 400 mg/dL or more were determined to be diabetic mice.
(§2) The SMTP-44D groups, the edaravone group, and the pregabalin group were administered SMTP-44D (0.3 mg/kg, 3 mg/kg, or 30 mg/kg doses, respectively), edaravone (10 mg/kg dose), or pregabalin (10 mg/kg dose) into the peritoneal cavity once a day for 3 consecutive weeks from the day following the first week to the fourth week after STZ administration.
The above-mentioned STZ group, SMTP-44D groups, edaravone group, pregabalin group, and control group mice were put in grid-like boxes, respectively, and were left for 30 minutes. After having been left, an acrylic disc (diameter: 20 cm; height (that is, thickness of the acrylic disc): […]) was placed on an EC hot plate (model number: EC1200) maintained at 49 to 50° C., and the mice were put on the acrylic disc. The measurements were started after the mice landed on the EC hot plate. The times from the mice landing to their action to jump or lick their hind legs were evaluated as thermal thresholds (seconds: s). Note, to avoid burns on their plantae, the measurements were ceased 30 seconds after beginning. The measurements were conducted three times at 30-minute intervals. A mean value of three thermal thresholds (seconds: s) was calculated for 1 mouse, and then a mean value of the 12 mice for the respective groups was found.

[2] = system: streptozotocin-induced diabetic mice; test: Sciatic nerve blood flow; conditions: 10 mg/kg i.p. once a day, 4th week
Procedure: as §1, §2
(§3) Sciatic nerves of the above-mentioned STZ group, SMTP-44D groups, edaravone group, pregabalin group, and control group mice on the 4th week were exposed under isoflurane anesthesia, and then, using the full-field laser perfusion imager, their sciatic nerve blood flows (perfusion unit: PU) were measured. After the sciatic nerve blood flows were measured, a voltage was output from a PowerLab through the […] to impart an electrical stimulus to the sciatic nerves using needle electrodes. The electrical stimulus went through the Analog Stimulus Isolator via recording electrodes attached to the gastrocnemius and was input into the PowerLab, and thus neuromuscular function response curves were measured. The sciatic nerves were stimulated between two points at 8-mm intervals. The sciatic nerve conduction velocity (m/s) was calculated by dividing the […]. The sciatic nerve blood flow and sciatic nerve conduction velocity were measured using a Hot-1 small-sized heating controller and small-sized body temperature retention device (model number: […]-1), maintaining the rectal temperature at 37° C. The measurement results are described in Table 11.

IL-6 = test: Inflammatory cytokine IL-6 in sciatic nerve (ELISA); conditions: 10 mg/kg i.p. once a day, 4th week
Procedure: as §1, §2
The sciatic nerves of the above-mentioned STZ group, SMTP-44D group (30 mg/kg), edaravone group, pregabalin group, and control group mice on the 4th week were homogenized using the RIPA buffer containing a protease inhibitor cocktail. Moreover, centrifugation was conducted at 4° C. for 15 minutes at 10,000 g, and the supernatant was collected and used for measuring TNF-α concentration (pg/mL), IL-1β concentration (pg/mL), IL-6 concentration (pg/mL), and total protein concentration (μg/mL), respectively. An ELISA assay kit was used for the TNF-α, IL-1β, and IL-6 concentrations. The total protein concentration was measured by using a Pierce (trademark) BCA Protein Assay Kit. The inflammatory cytokine level (pg/mg protein) in the total protein was calculated from the TNF-α concentration (pg/mL), IL-1β concentration (pg/mL), and IL-6 concentration (pg/mL), and total protein concentration (μg/mL).

[3] = system: streptozotocin-induced diabetic mice; test: Von Frey test: evaluating mechanical stimulus; conditions: 10 mg/kg i.p. once a day
Procedure: as §1, §2
The above-mentioned STZ group, SMTP-44D groups, edaravone group, pregabalin group, and control group mice were put in grid-like boxes, respectively, and were familiarized for one hour. After the familiarization, by using a Dynamic Plantar Aesthesiometer (tactometer) (manufactured by UGO BASILE Inc.), 1 g/s (that, pressurization increased by 1 g per second) of stimulation was imparted to the hind legs of these mice to measure mechanical thresholds (g) from the start of stimulation to the time when the mice withdrew their legs. The measurements were conducted for both hind legs three times at intervals of three minutes or longer, respectively. A mean value of three mechanical thresholds (g) was calculated for 1 mouse, and then a mean value of the 12 mice for the respective groups was found.

[4] = system: streptozotocin-induced diabetic mice; test: Sciatic nerve conduction velocity; conditions: 10 mg/kg i.p. once a day, 4th week
Procedure: as §1, §2, §3

[5] = Body weight (BW) in streptozotocin-induced diabetic mice; conditions: 10 mg/kg i.p. once a day
Procedure: as §1, §2
For the above-mentioned STZ group, SMTP-44D groups, edaravone group, pregabalin group, and control group mice, the following measurements were conducted every week from the 0th week, which began on the day when streptozotocin (STZ) was administered, to the 4th week (that is, a total of five times). As algesia tests, the following von Frey test and hot plate test were conducted, and hind plantar blood flow, body weight (BW), and blood glucose level (BS) were measured using the above-mentioned automatic blood glucose measure device. Note, for example, the 0th week represents the 0th day. That is, the measurements were conducted on the 0th, 7th, 14th, 21st, and 28th days.

[6] = 0th week (before dosing), listed as edaravone
[7] = 1st week (before dosing), listed as edaravone
[8] = 0th week (before dosing), listed as pregabalin
[9] = 1st week (before dosing), listed as pregabalin

| SMILES | Hot plate test thermal threshold ([1]; 0th week (before dosing)) [s] | Hot plate test thermal threshold ([1]; 1st week (before dosing)) [s] | Hot plate test thermal threshold ([1]; 2nd week) [s] | Hot plate test thermal threshold ([1]; 3rd week) [s] | Hot plate test thermal threshold ([1]; 4th week) [s] | Sciatic nerve blood flow [2] [PU] | IL-6 (IL-6) [pg/mg protein] | von Frey test mechanical threshold ([3]; 0th week (before dosing)) [g] | von Frey test mechanical threshold ([3]; 1st week (before dosing)) [g] | von Frey test mechanical threshold ([3]; 2nd week) [g] | von Frey test mechanical threshold ([3]; 3rd week) [g] | von Frey test mechanical threshold ([3]; 4th week) [g] | Sciatic nerve conduction velocity [4] [m/s] | Body weight decrease between the 0th week and 4th week [5] [g] | BW (body weight) ([5]; 0th week (before dosing)) [g] | BW (body weight) ([5]; 1st week (before dosing)) [g] | BW (body weight) ([5]; 2nd week) [g] | BW (body weight) ([5]; 3rd week) [g] | BW (body weight) ([5]; 4th week) [g] | also measured |
| --- | --- | --- | --- | --- | --- | --- | --- | --- | --- | --- | --- | --- | --- | --- | --- | --- | --- | --- | --- | --- |
| CC1=NN(c2ccccc2)C(=O)C1 [Edaravone, edaravone] | 20.8 ± 0.5 | 15.7 ± 0.8 | 15.5 ± 1.2 | 15.4 ± 0.9 | 16.0 ± 0.8 | 1336.1 ± 46.7 | 165.83 ± 10.21 | 5.1 ± 0.1 | 4.1 ± 0.1 | 4.6 ± 0.2 | 4.8 ± 0.1 | 5.1 ± 0.2 | 63.6 ± 1.8 | 2.4 | 23.4 ± 0.3 | 21.9 ± 0.4 | 21.6 ± 0.4 | 21.3 ± 0.5 | 21.0 ± 0.5 | Hot plate test thermal threshold [1, 6]: 20.8 ± 0.5 s; Hot plate test thermal threshold [1, 7]: 15.7 ± 0.8 s; Hot plate test thermal threshold ([1]; 2nd week, listed as edaravone): 15.5 ± 1.2 s; Hot plate test thermal threshold ([1]; 3rd week, listed as edaravone): 15.4 ± 0.9 s; Hot plate test thermal threshold ([1]; 4th week, listed as edaravone): 16.0 ± 0.8 s; Sciatic nerve blood flow ([2]; listed as edaravone): 1336.1±46.7 PU; IL-6 (IL-6; listed as edaravone): 165.83±10.21 pg/mg protein; von Frey test mechanical threshold [3, 6]: 5.1 ± 0.1 g; von Frey test mechanical threshold [3, 7]: 4.1 ± 0.1 g; von Frey test mechanical threshold ([3]; 2nd week, listed as edaravone): 4.6 ± 0.2 g; von Frey test mechanical threshold ([3]; 3rd week, listed as edaravone): 4.8 ± 0.1 g; von Frey test mechanical threshold ([3]; 4th week, listed as edaravone): 5.1 ± 0.2 g; Sciatic nerve conduction velocity ([4]; listed as edaravone): 63.6±1.8 m/s; BW (body weight) [5, 6]: 23.4 ± 0.3 g; BW (body weight) [5, 7]: 21.9 ± 0.4 g; BW (body weight) ([5]; 2nd week, listed as edaravone): 21.6 ± 0.4 g; BW (body weight) ([5]; 3rd week, listed as edaravone): 21.3 ± 0.5 g; BW (body weight) ([5]; 4th week, listed as edaravone): 21.0 ± 0.5 g |
| CC(C)C[C@H](CN)CC(=O)O [Pregabalin, pregabalin] | 22.2 ± 0.8 | 15.7 ± 0.7 | 17.3 ± 1.1 | 17.7 ± 0.9 | 17.9 ± 1.1 | 1114.1 ± 27.5 | 166.60 ± 13.57 | 5.0 ± 0.2 | 4.0 ± 0.1 | 4.6 ± 0.2 | 4.6 ± 0.2 | 4.7 ± 0.2 | 55.9 ± 1.4 | 1.4 | 21.8 ± 0.3 | 21.4 ± 0.3 | 21.3 ± 0.4 | 21.0 ± 0.2 | 20.4 ± 0.2 | Hot plate test thermal threshold [1, 8]: 22.2 ± 0.8 s; Hot plate test thermal threshold [1, 9]: 15.7 ± 0.7 s; Hot plate test thermal threshold ([1]; 2nd week, listed as pregabalin): 17.3 ± 1.1 s; Hot plate test thermal threshold ([1]; 3rd week, listed as pregabalin): 17.7 ± 0.9 s; Hot plate test thermal threshold ([1]; 4th week, listed as pregabalin): 17.9 ± 1.1 s; Sciatic nerve blood flow ([2]; listed as pregabalin): 1114.1±27.5 PU; IL-6 (IL-6; listed as pregabalin): 166.60±13.57 pg/mg protein; von Frey test mechanical threshold [3, 8]: 5.0 ± 0.2 g; von Frey test mechanical threshold [3, 9]: 4.0 ± 0.1 g; von Frey test mechanical threshold ([3]; 2nd week, listed as pregabalin): 4.6 ± 0.2 g; von Frey test mechanical threshold ([3]; 3rd week, listed as pregabalin): 4.6 ± 0.2 g; von Frey test mechanical threshold ([3]; 4th week, listed as pregabalin): 4.7 ± 0.2 g; Sciatic nerve conduction velocity ([4]; listed as pregabalin): 55.9±1.4 m/s; BW (body weight) [5, 8]: 21.8 ± 0.3 g; BW (body weight) [5, 9]: 21.4 ± 0.3 g; BW (body weight) ([5]; 2nd week, listed as pregabalin): 21.3 ± 0.4 g; BW (body weight) ([5]; 3rd week, listed as pregabalin): 21.0 ± 0.2 g; BW (body weight) ([5]; 4th week, listed as pregabalin): 20.4 ± 0.2 g |
